Several values for one entry are separate records, joined by “and”; a condition that tells them apart may be missing. Identical values can stand only once. Like-named read-outs stand apart in the source and are kept apart here. Marks after values point to notes of the source that are not given here.
Columns and labels:
[1] = system: K. pneumoniae AcrB^V448E RamR^mut; assay: MIC of antibiotics with and without EPI (REMA), double mutant; format: cell-based, Klebsiella pneumoniae; conditions: K. pneumoniae AcrB^V448E RamR^mut
Method: MIC experiments were carried out according to the CLSI guidelines (CLSI [2023]). Overnight cultures were diluted to an OD600 = 0.001 in CAMHB followed by addition of efflux pump inhibitors (EPIs) at a final concentration of 100 µM. […] Plates were incubated at 37 °C for up to 20 h. Bacterial viability was evaluated using the resazurin microtitre assay (REMA) and measured by fluorescence using a Tecan Spaert multimode plate reader (Ex: 530 nm Em: 590 nm). MICs were defined as the concentration that prevented 90% of resazurin turnover compared to the non-treated bacteria.

[2] = Pharmacokinetics in mice, single oral dose (plasma, whole lung); conditions: for concentration at 0.5 h / concentration at 1 h / concentration at 1.5 h / concentration at 2 h / concentration at 4 h / concentration at 6 h / concentration at 24 h: mice
Method: BDM91288 (5) was dissolved in 10% kleptose hydroxypropyl-β-cyclodextrin in distilled water and administered per os at 30 mg/kg to female CD-1 mice (~25–30 g). The concentration of BDM91288 (5) in plasma and lungs was measured at different time points after administration of a single dose of compounds. Three mice per time point were anesthetized with isoflurane and blood taken from the retro-orbital sinus using sampling heparinated tubes (4 °C). The blood samples were centrifuged (3500 rpm, 20 min, 4 °C) for plasma separation and stored at −80 °C before BDM91288 measurement. After rodent sacrifice by cervical dislocation, lung was washed in sodium chloride solution (0.9%), frozen in liquid nitrogen and stored at −80 °C.
Plasma and BAL fluid samples were thawed on ice. Aliquots were precipitated with ice-cold MeCN/MeOH 50:50 (1 to 10 ratio) containing propranolol (100 nM) as internal standard. The samples were vigorously mixed with a vortex and centrifuged for 10 min at 12,000 rpm, 4 °C, and the supernatants were transferred into Matrix tubes for LC-MS/MS analysis. Lungs were homogenized in ultrapure water, in a 1 to 4 ratio (W/V) (using a Tissue Lyzer II from Qiagen); then compounds were extracted with a MeOH/MeCN 50:50 mixture in a 1 to 1 ratio (V/V). After centrifugation (12,000 rpm, 10 min, 4 °C) of the homogenate samples, supernatants were diluted (1 to 10) with a MeOH/MeCN 50:50 mixture containing propranolol (100 nM) as internal standard and transferred into Matrix tubes for LC-MS/MS analysis. Spiked standard solutions were prepared the same way in control matrix.
Samples were analysed using a UPLC system Acquity I Class (Waters), combined with a triple quadrupole mass spectrometer Xevo TQD (Waters). The column, placed at 40 °C, was an Acquity BEH C18 50 × 2.1 mm, 1.7 μm column (Waters) and the following mobile phases were used: H2O 0.1% HCOOH as solvent A and MeCN 0.1% HCOOH as solvent B at a flow rate of 0.6 mL/min. The gradient was initiated at 2% B, maintained for 10 s then increased linearly to 98% B in 1′50 and maintained at 98% B for 30 s before returning to initial conditions. […] Data analysis and processing were performed using MassLynx software (Waters).

[3] = Pharmacokinetics in mice in combination with levofloxacin (plasma, lung after BAL, ELF); format: in vivo, female CD-1 mice; conditions: female, CD-1, mouse, ELF and plasma, oral; higher than plasma; read-out: ELF exposure (AUC) relative to that measured in the plasma
Method: The concentration of compounds in plasma, lungs and ELF was measured after 2 h, 6 h and 24 h. […] After rodent sacrifice by cervical dislocation, bronchoalveolar lavage (BAL) fluid was collected using a cannula inserted into the trachea. 1 mL of PBS was introduced in lungs via the cannula and the collected BAL fluid was centrifuged (5 min, 3500 rpm, 4 °C). Supernatants were removed, their volume recorded, and samples stored at −80 °C until analysis.
Plasma and BAL fluid samples were thawed on ice.
The concentration of compound in ELF, [cpd]ELF, was calculated as follows: cpdELF=cpdBALxVBAL/VELF where [cpd]BAL is the measured concentration of compound in BAL fluid supernatant, VBAL and VELF, the volume of aspired BAL and the calculated volume of ELF, respectively.
The volume of ELF was calculated as follows: VELF=VBALxUreaBAL/UreaPlasma where VELF represents the apparent volume of ELF, VBAL is the volume of aspired BAL, and [Urea]BAL and [Urea]Plasma are concentration of urea in BAL fluid or plasma, respectively.
Concentrations of urea in plasma and in BAL fluid supernatant was measured using the UREA Nitrogen (BUN) colorimetric detection kit, according to the supplier procedural guidelines (Invitrogen).

K. pneumoniae AcrB = K. pneumoniae AcrB (Klebsiella pneumoniae, UniProt A0A332Z023); assay: Berberine accumulation assay, K. pneumoniae WT; format: cell-based; conditions: read-out: apparent Ki, concentration-dependent stimulation of berberine uptake, 200 µM berberine
Method: The accumulation of the berberine AcrB substrate in K. pneumoniae WT and AcrB-V448E cells in the presence of different BDM91288 (5) concentrations was determined as described (Plé et al, [2022]) with minor modifications. Briefly, an overnight LB pre-culture of each strain (0.6 mL) was used to inoculate a 30-mL LB culture and incubated for around 2 h (37 °C, 150 rpm) to reach OD600 around 1. Cells were harvested by centrifugation (4000 × g, 10 min at 4 °C), washed three times with 10 mL of ice-cold buffer (50 mM potassium-phosphate pH 7.5 and 1 mM MgSO4) and resuspended into the same buffer containing also 0.2% glucose to an OD600 of 2. The bacterial suspension was then allowed to reach room temperature, after which 200 µL was dispensed to wells of an assay ready 96-black-well plate (Greiner Bio-One) containing 2 µL of 100× concentrated serial dilution of BDM91288 (5). To initiate the uptake experiment, 2 µL of berberine 20 mM (final concentration of 200 µM) was added to each well and transferred to a microplate fluorescence plate reader (Spark, Tecan), where the kinetics of berberine uptake was monitored for 20 min at 30 °C (excitation 365 nm/emission 540 nm). Experiments were performed 4 independent times, and berberine uptake was calculated for all conditions as the rate of fluorescence increase over the first 10 min and expressed as RFU/min (mean ± SD). […]

[4] = female, CD-1, mouse, in vivo, po, 30 mg/kg
[5] = female, CD-1, mouse, in vivo, po, 30 mg/kg, Caverage plasma, single 30 mg/kg p.o.
[6] = female, CD-1, mouse, in vivo, po, 30 mg/kg, Caverage whole lung, single 30 mg/kg p.o.

Sequence of K. pneumoniae AcrB (A0A332Z023 entry or part of it): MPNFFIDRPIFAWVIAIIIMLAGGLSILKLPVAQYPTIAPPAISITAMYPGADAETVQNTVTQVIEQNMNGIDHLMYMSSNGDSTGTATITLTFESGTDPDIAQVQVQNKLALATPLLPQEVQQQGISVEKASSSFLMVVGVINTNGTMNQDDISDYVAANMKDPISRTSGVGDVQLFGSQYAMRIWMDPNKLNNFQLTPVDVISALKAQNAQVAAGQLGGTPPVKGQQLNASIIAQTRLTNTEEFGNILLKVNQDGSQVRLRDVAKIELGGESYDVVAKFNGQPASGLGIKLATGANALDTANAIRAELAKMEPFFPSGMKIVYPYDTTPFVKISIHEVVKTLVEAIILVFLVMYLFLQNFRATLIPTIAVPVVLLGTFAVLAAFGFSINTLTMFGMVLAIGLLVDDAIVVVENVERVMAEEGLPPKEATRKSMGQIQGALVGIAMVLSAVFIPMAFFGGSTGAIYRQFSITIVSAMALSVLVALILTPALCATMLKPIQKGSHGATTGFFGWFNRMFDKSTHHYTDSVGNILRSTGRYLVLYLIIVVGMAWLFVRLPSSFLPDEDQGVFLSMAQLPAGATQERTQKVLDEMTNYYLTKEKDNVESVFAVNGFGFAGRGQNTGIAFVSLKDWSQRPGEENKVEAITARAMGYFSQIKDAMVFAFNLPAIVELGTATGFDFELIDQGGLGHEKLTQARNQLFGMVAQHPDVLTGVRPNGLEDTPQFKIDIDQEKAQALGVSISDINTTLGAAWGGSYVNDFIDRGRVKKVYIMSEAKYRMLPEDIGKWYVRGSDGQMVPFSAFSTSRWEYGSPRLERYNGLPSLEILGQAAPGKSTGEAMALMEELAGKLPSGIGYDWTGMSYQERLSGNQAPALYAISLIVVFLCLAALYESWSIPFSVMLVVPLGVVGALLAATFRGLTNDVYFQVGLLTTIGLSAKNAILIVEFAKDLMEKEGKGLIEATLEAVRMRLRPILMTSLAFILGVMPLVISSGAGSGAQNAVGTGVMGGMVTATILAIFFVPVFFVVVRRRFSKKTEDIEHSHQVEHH

In the case of C[C@H]1COc2c(N3CCN(C)CC3)c(F)cc3c(=O)c(C(=O)O)cn1c23 [Levofloxacin], the “Minimum Inhibitory Concentration” value ([1]; + 100 µM 1') is reported as 1.28 mg/L, the “Minimum Inhibitory Concentration” value ([1]; + 100 µM 5) is reported as 1.28 mg/L and the “Minimum Inhibitory Concentration” value ([1]; + 100 µM PAβN) is reported as 0.05^# mg/L. The “Minimum Inhibitory Concentration” value ([1]; No EPI) was 1.28 mg/L.
With Clc1cc2cc(N3CCNCC3)ccc2nc1N1CCNCC1 [compound 5] the Tmax [2, 4] was 4 h, the half-life [2, 4] was greater than 10 h and the AUC(0-t) ([2]; female, CD-1, mouse, in vivo, po, 30 mg/kg, AUC(0-24h) plasma, single 30 mg/kg p.o., female CD-1 mice) was 27 µM·h. It also gave an AUC(0-t) ([2]; female, CD-1, mouse, in vivo, po, 30 mg/kg, AUC(0-24h) whole lung, single 30 mg/kg p.o., female CD-1 mice) of 3880 µM·h, a concentration at 0.5 h [2, 5] of 800 nM and a concentration at 1 h [2, 5] of 1600 nM. For the same molecule, the concentration at 1.5 h [2, 5] was 1300 nM, the concentration at 2 h [2, 5] was 1800 nM and the concentration at 4 h [2, 5] was 2000 nM. For the same molecule, the concentration at 6 h [2, 5] was 1400 nM, the concentration at 24 h [2, 5] was 500 nM and the concentration at 0.5 h [2, 6] was 35.4 µM and 11700 ng/g. The concentration at 1 h [2, 6] was 93.5 µM and 31000 ng/g, the concentration at 1.5 h [2, 6] was 102 µM and 33800 ng/g and the concentration at 2 h [2, 6] was 160 µM and 53100 ng/g. The concentration at 4 h [2, 6] was 225 µM and 74700 ng/g, the concentration at 6 h [2, 6] was 168 µM and 55900 ng/g and the concentration at 24 h [2, 6] was 159 µM and 52800 ng/g. The Cmax ([2]; female, CD-1, mouse, in vivo, po, 30 mg/kg, Cmax plasma, single 30 mg/kg p.o., female CD-1 mice) was 2000 nM, the Cmax ([2]; female, CD-1, mouse, in vivo, po, 30 mg/kg, Cmax whole lung, single 30 mg/kg p.o., female CD-1 mice) was 225 µM and 75000 ng/g and the Cmax ([2]; read-out: Cmax whole lung, single 30 mg/kg p.o., female CD-1 mice, listed as BDM91288 (5)) was 225000 nM. The Kp [3] was 2.3 and the Ki (K. pneumoniae AcrB) was roughly 20 µM.

From PMC10897476, “Pyridylpiperazine efflux pump inhibitor boosts in vivo antibiotic efficacy against K. pneumoniae” (EMBO Molecular Medicine, 2023)
